Experimental data reported in US11318137B2, “Quinazoline compounds as modulators of Ras signaling” (VANDERBILT UNIVERSITY, priority 2017, dated 2022).

Experiments:
Son of Sevenless (SOS) = target: T1, Son of Sevenless (SOS) (Homo sapiens, UniProt Q07889); assay: Binding to SOS, fluorescence polarization anisotropy (FPA) displacement of FITC-conjugated probe; settings: binding affinity calculated from IC50 of FITC-probe displacement, read-out: Binding affinities (binding affinity to SOS)
T1 sequence (Q07889 564-1049 limits assumed): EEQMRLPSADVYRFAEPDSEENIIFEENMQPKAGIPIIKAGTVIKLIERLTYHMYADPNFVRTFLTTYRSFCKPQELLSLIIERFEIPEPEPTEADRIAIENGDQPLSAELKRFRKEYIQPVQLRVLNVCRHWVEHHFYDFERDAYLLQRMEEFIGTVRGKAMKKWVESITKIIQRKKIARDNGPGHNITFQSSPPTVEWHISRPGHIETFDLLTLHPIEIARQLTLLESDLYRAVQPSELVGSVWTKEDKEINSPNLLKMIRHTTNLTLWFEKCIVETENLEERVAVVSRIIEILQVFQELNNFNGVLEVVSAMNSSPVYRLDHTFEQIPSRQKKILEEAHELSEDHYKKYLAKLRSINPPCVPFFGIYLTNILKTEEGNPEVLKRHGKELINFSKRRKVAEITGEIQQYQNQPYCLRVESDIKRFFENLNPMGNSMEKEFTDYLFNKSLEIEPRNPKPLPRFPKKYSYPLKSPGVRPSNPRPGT
Method: Compounds of the present invention were tested for their ability to the Ras guanine exchange factor (GEF) Son of Sevenless (SOS). Binding to SOS was measured using a Fluorescence polarization anisotropy (FPA) assay that assesses the ability of a test compound to displace a fluorescent FITC-conjugated compound. Briefly, the labeled probe compound is incubated with SOS in buffer. Changes in anisotropy indicative of displacement of the labeled probe for a test compound are assessed over a dose range of test compound. Data was analyzed by plotting fluorescence anisotropy values as a function of compound concentration. IC50 values were determined using a four-parameter dose-response (variable slope) and binding affinities were calculated from this IC50 value. This assay is performed in a method analogous to the assay disclosed in: Burns, M. C.; Sun, Q.; Daniels, R. N.; Camper, D. V.; Kennedy, J. P.; Phan, J.; Olejniczak, E. O.; Lee, T.; Waterson, A. G.; Rossanese, O. W.; Fesik, S. W. “Approach for targeting Ras with small molecules that activate SOS-mediated nucleotide exchange” Proc. Natl. Acad. Sci. 2014; 11(9): 3401-3406. PMCID: PMC3948241.

[1] = target: T2, SOS-mediated nucleotide exchange on Ras (Homo sapiens, UniProt Q07889); assay: SOS-mediated nucleotide exchange on Ras (BODIPY-GDP fluorescence); type: biochemical; settings: Ras loaded with BODIPY-GDP, GTP and SOS added; EC50 from derived exchange rates
T2 sequence (Q07889 1-1333): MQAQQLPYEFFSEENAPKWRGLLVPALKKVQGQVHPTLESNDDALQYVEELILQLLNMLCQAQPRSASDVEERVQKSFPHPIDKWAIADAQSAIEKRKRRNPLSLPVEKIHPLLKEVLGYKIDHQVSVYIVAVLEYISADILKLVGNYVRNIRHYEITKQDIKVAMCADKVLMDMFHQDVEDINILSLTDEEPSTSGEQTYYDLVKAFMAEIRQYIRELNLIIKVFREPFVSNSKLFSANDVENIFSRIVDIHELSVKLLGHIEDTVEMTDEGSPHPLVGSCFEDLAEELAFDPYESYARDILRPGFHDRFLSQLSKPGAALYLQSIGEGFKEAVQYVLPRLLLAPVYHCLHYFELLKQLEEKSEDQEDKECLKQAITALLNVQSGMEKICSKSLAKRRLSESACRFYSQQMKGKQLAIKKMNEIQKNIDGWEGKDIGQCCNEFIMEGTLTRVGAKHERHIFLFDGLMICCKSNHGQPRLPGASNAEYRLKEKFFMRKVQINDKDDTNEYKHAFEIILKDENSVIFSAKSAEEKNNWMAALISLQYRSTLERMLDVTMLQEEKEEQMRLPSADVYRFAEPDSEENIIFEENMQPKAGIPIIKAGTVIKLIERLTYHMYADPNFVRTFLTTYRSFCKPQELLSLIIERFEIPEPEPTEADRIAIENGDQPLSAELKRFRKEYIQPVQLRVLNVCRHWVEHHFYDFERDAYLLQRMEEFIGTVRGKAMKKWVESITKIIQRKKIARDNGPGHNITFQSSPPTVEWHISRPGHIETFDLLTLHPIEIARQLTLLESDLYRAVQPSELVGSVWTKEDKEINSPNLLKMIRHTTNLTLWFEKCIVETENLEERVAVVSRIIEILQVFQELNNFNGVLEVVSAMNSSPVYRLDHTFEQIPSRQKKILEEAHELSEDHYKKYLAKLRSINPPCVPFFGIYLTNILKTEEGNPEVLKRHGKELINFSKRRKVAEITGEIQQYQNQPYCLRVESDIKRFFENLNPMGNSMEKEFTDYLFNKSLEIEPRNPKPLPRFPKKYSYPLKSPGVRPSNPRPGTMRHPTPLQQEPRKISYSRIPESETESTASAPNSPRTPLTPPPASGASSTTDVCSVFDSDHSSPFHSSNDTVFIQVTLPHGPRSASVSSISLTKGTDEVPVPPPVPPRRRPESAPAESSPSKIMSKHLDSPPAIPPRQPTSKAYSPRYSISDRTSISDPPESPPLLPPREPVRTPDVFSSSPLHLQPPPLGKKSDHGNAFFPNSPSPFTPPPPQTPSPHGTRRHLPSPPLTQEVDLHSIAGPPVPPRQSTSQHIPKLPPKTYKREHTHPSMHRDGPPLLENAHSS
Method: A. SOS-Mediated Nucleotide Exchange on Ras
Compounds of the present invention were tested for their ability to modify the rate at which Ras exchanges a labeled nucleotide guanosine diphosphate (GDP) analog for guanosine triphosphate (GTP). Briefly, test compounds, then GTP and the Ras GEF SOS (Son of Sevenless) are added to a buffered solution containing Ras protein loaded with BODIPY-GDP. Changes in fluorescence indicating exchange of the labeled GDP for GTP are monitored over time. Raw fluorescence data was fit to a single exponential decay function and derived rates were plotted as mean values. EC50 values were calculated by plotting mean derived rates as a function of compound concentration and fit using a four-parameter dose-response curve. Full assay details are disclosed in: Burns, M. C.; Sun, Q.; Daniels, R. N.; Camper, D. V.; Kennedy, J. P.; Phan, J.; Olejniczak, E. O.; Lee, T.; Waterson, A. G.; Rossanese, O. W.; Fesik, S. W. “Approach for targeting Ras with small molecules that activate SOS-mediated nucleotide exchange” Proc. Natl. Acad. Sci. 2014; 11(9): 3401-3406. PMCID: PMC3948241.

In the case of CC[C@@H](Nc1nc(Nc2cc(C)cc(F)c2)nc2c(CCN)cccc12)C1CC1 [Example 128, (R)-8-(2-aminoethyl)-N^4-(1-cyclopropylpropyl)-N^2-(3-fluoro-5-methylphenyl)quinazoline-2,4-diamine], the Ki (Son of Sevenless (SOS)) is reported as 1 to 5 µM and the EC50 [1] is reported as 1 to 5 µM.
Cc1cc(F)cc(Nc2nc(N[C@H](C)C3CC3)c3cccc(CCN)c3n2)c1 [Example 118, (R)-8-(2-aminoethyl)-N^4-(1-cyclopropylethyl)-N^2-(3-fluoro-5-methylphenyl)quinazoline-2,4-diamine] showed a Ki (Son of Sevenless (SOS)) of 1 to 5 µM and an EC50 [1] of 1 to 5 µM.
C=CC[C@@H](Nc1nc(Nc2cc(F)cc(F)c2)nc2c(C3=CCNCC3)cccc12)C1CC1 [Example 116, (R)—N^4-(1-cyclopropylbut-3-en-1-yl)-N^2-(3,5-difluorophenyl)-8-(1,2,3,6-tetrahydropyridin-4-yl)quinazoline-2,4-diamine] gave a Ki (Son of Sevenless (SOS)) of less than 1 µM and an EC50 [1] of 1 to 5 µM.
Compound Cc1cc(F)cc(Nc2nc(N[C@H](C)C3CC3)c3cccc(C4=CCNCC4)c3n2)c1 [Example 107, (R)—N^4-(1-cyclopropylethyl)-N^2-(3-fluoro-5-methylphenyl)-8-(1,2,3,6-tetrahydropyridin-4-yl)quinazoline-2,4-diamine] has a Ki (Son of Sevenless (SOS)) of 1 to 5 µM and an EC50 [1] of 1 to 5 µM.
C[C@@H](Nc1nc(NCC2CCC2)nc2c(C3=CCNCC3)cccc12)C1CC1 [Example 106, (R)—N^2-(cyclobutylmethyl)-N^4-(1-cyclopropylethyl)-8-(1,2,3,6-tetrahydropyridin-4-yl)quinazoline-2,4-diamine] was tested, and the Ki (Son of Sevenless (SOS)) was 1 to 5 µM and the EC50 [1] was less than 1 µM.
Compound C[C@@H](Nc1nc(Nc2ccc(F)c(Cl)c2)nc2c(NCC3CNC3)cccc12)C1CC1 [Example 111, (R)—N^8-(azetidin-3-ylmethyl)-N^2-(3-chloro-4-fluorophenyl)-N^4-(1-cyclopropylethyl)quinazoline-2,4,8-triamine] has a Ki (Son of Sevenless (SOS)) greater than 5 µM and an EC50 [1] of 5 to 30 µM.
Compound C[C@@H](Nc1nc(Nc2ccc(F)c(Cl)c2)nc2c(N3CCOCC3)cccc12)C1CC1 [Example 124, (R)—N^2-(3-chloro-4-fluorophenyl)-N^4-(1-cyclopropylethyl)-8-morpholinoquinazoline-2,4-diamine] has a Ki (Son of Sevenless (SOS)) greater than 5 µM and an EC50 [1] of 5 to 30 µM.
In the case of C[C@@H](Nc1nc(NCc2cccc(Cl)c2F)nc2c(CCN)cccc12)C1CC1 [Example 119, (R)-8-(2-aminoethyl)-N^2-(3-chloro-2-fluorobenzyl)-N^4-(1-cyclopropylethyl)quinazoline-2,4-diamine], the Ki (Son of Sevenless (SOS)) is reported as 1 to 5 µM and the EC50 [1] is reported as 1 to 5 µM.
Compound C[C@@H](Nc1nc(Nc2ccc(F)c(Cl)c2)nc2ccccc12)c1cccs1 [Example 37, (R)—N^2-(3-chloro-4-fluorophenyl)-N^4-(1-(thiophen-2-yl)ethyl)quinazoline-2,4-diamine] has a Ki (Son of Sevenless (SOS)) greater than 5 µM and an EC50 [1] of 1 to 5 µM.
C[C@@H](Nc1nc(NCC2CCCC2)nc2ccccc12)C1CC1 [Example 3, (R)—N^2-(cyclopentylmethyl)-N^4-(1-cyclopropylethyl)quinazoline-2,4-diamine] showed a Ki (Son of Sevenless (SOS)) greater than 5 µM and an EC50 [1] of 1 to 5 µM.
C[C@@H](Nc1nc(NCC2CCCCC2)nc2c(CCN)cccc12)C1CC1 [Example 77] was tested, and the Ki (Son of Sevenless (SOS)) was less than 1 µM and the EC50 [1] was 1 to 5 µM.
Compound C[C@@H](Nc1nc(NCC2CCCCC2)nc2c(CCN)cccc12)c1cccs1 [Example 93, (R)-8-(2-aminoethyl)-N^2-(cyclohexylmethyl)-N^4-(1-(thiophen-2-yl)ethyl)quinazoline-2,4-diamine] has a Ki (Son of Sevenless (SOS)) of less than 1 µM and an EC50 [1] of 5 to 30 µM.
Work on CC[C@@H](Nc1nc(Nc2ccc(F)c(Cl)c2)nc2ccccc12)C1CC1 [Example 34, (R)—N^2-(3-chloro-4-fluorophenyl)-N^4-(1-cyclopropylpropyl)quinazoline-2,4-diamine] yielded a Ki (Son of Sevenless (SOS)) greater than 5 µM and an EC50 [1] of 5 to 30 µM.
Work on C[C@@H](Nc1nc(Nc2ccc(F)c(Cl)c2)nc2c(NCCCN(C)C)cccc12)C1CC1 [Example 53, (R)—N^2-(3-chloro-4-fluorophenyl)-N^4-(1-cyclopropylethyl)-N^8-(3-(dimethylamino)propyl)quinazoline-2,4,8-triamine] yielded a Ki (Son of Sevenless (SOS)) greater than 5 µM and an EC50 [1] of 5 to 30 µM.
Work on C=CC[C@@H](Nc1nc(Nc2ccc(F)c(Cl)c2)nc2c(C3=CCNCC3)cccc12)C1CC1 [Example 115, (R)—N^2-(3-chloro-4-fluorophenyl)-N^4-(1-cyclopropylbut-3-en-1-yl)-8-(1,2,3,6-tetrahydropyridin-4-yl)quinazoline-2,4-diamine] yielded a Ki (Son of Sevenless (SOS)) of 1 to 5 µM and an EC50 [1] of 1 to 5 µM.
CC[C@@H](Nc1nc(Nc2cc(C)cc(F)c2)nc2c(C3=CCNCC3)cccc12)C1CC1 [Example 126, (R)—N^4-(1-cyclopropylpropyl)-N^2-(3-fluoro-5-methylphenyl)-8-(1,2,3,6-tetrahydropyridin-4-yl)quinazoline-2,4-diamine] was tested, and the Ki (Son of Sevenless (SOS)) was less than 1 µM and the EC50 [1] was 1 to 5 µM.
C[C@@H](Nc1nc(Nc2ccc(F)c(Cl)c2)nc2c(CC3CC(N)C3)cccc12)C1CC1 (stereo partly drawn) [Example 114, (R)-8-((3-aminocyclobutyl)methyl)-N^2-(3-chloro-4-fluorophenyl)-N^4-(1-cyclopropylethyl)quinazoline-2,4-diamine] showed a Ki (Son of Sevenless (SOS)) of 1 to 5 µM and an EC50 [1] of 1 to 5 µM.
For C[C@@H](Nc1nc(Nc2ccc(F)c(Cl)c2)nc2c(CCN)cccc12)C(C)(C)C [Example 82, (R)-8-(2-aminoethyl)-N^2-(3-chloro-4-fluorophenyl)-N^4-(3,3-dimethylbutan-2-yl)quinazoline-2,4-diamine], the Ki (Son of Sevenless (SOS)) was greater than 5 µM and the EC50 [1] was 5 to 30 µM.
C[C@@H](Nc1nc(Nc2ccc(F)c(Cl)c2)nc2c(NCCCN)cccc12)C1CC1 [Example 66, (R)—N^8-(3-aminopropyl)-N^2-(3-chloro-4-fluorophenyl)-N^4-(1-cyclopropylethyl)quinazoline-2,4,8-triamine] gave a Ki (Son of Sevenless (SOS)) greater than 5 µM and an EC50 [1] of 5 to 30 µM.
